Drawing on patent US20020013372A1, “Pharmacophore models for the identification of the CYP2D6 inhibitory potency of selective serotonin reuptake inhibitors” (priority 2000, published 2002), this text covers Ki for 19 molecules.

Values joined by “and” are separate entries in the source; they are usually repeats but may differ in a detail not shown here. Equal values may be shown once.

T1 sequence (P10635 whole entry): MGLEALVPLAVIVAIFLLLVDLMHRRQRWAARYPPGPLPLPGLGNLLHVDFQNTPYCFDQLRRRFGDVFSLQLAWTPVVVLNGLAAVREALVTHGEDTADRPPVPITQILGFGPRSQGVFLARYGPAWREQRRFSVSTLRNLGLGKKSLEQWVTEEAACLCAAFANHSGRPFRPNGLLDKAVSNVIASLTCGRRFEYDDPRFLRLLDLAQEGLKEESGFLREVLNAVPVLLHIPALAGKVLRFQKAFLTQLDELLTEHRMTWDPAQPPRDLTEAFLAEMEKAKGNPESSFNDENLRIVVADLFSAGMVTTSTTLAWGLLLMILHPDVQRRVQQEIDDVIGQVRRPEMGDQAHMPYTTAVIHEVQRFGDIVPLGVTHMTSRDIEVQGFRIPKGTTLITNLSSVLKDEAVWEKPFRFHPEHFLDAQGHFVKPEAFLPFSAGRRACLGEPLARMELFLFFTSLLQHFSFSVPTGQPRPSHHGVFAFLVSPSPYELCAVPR

One series addresses T1, CYP2D6 (Homo sapiens, UniProt P10635). Kind of series: In vitro inhibition of CYP2D6, observed Ki (apparent) values from the literature.
Conditions: not given
The text has this:
Many SSRI's are known to be inhibitors of cytochrome P450 (CYP), including CYP2D6 mediated metabolic pathways in vivo and in vitro (Belpair et al., Eur. J Clin. Pharmacol., 54: 261-264, 1998; Crewe et al., Br. J. Clin. Pharmacol., 34: 262-265, 1992; Otton et al, Clin. Pharmacol. Ther., 53: 401-409, 1993; Skjelbo et al., Br. J. Clin. Pharmacol., 34: 256-261, 1992; Stevens et al., J. Pharmacol. Exp. Ther., 266: 964-971, 1993). […] As CYP2D6 is of major concern because of its polymorphic nature (Brosen, Ther. Drug Monitoring, 18: 393-396, 1996), the ability to predict whether a drug will interact with this CYP represents a serious advance in the pharmaceutical arts. The potential for CYP2D6 inhibition in vivo can be predicted reliably using systems such as human liver microsomes and recombinant enzymes, along with a know substrate probe for CYP2D6. By generating a K1 (apparent) value and knowledge of the plasma concentration of the drug, it is possible to reliably predict the likelihood of drug-drug interactions in vivo (Ring et al., J. Pharmacol. Exp. Ther., 275: 1131-1135, 1995).
Present technologies have centered around the use of in vitro testing using human liver microsomes or recombinant CYPs and a known catalytic probe for CYP2D6 such as bufuralol. However, the possible volume of in vitro studies is often limited by equipment and materials cost, incubation volume and the rate of analytical determination. […] Generating this in vitro parameter appears to be dependent on the substrate probe used as well as other experimental variables.
As for `CN[C@H]1CC[C@@H](c2ccc(Cl)c(Cl)c2)c2ccccc21` [Sertraline], the Ki was 6.52 µM. Take `CN(C)CCCC1(c2ccc(F)cc2)OCc2cc(C#N)ccc21` (stereo not drawn) [Citalopram]: the Ki worked out at 10.4 µM. Still for that read-out and setting: next, `NCCC(Oc1ccc(C(F)(F)F)cc1)c1ccccc1` (stereo not drawn) [Norfluoxetine]: 1.07 µM; `CNCCCC1(c2ccc(F)cc2)OCc2cc(C#N)ccc21` (stereo not drawn) [Desmethylcitalopram]: 3.65 µM.

The target of the next series is T1, CYP2D6.
Assay: not given
The settings on record: read-out: Observed K1 (apparent); individual literature values, source per footnote b-l of Table I; cited from earlier work.
Take `N[C@H]1CC[C@@H](c2ccc(Cl)c(Cl)c2)c2ccccc21` [Desmethylsertraline]: the Ki was 16 µM. In the case of `CN(C)CCCC1(c2ccc(F)cc2)OCc2cc(C#N)ccc21` (stereo not drawn) [Citalopram], the Ki was 5.1 µM and 19 µM and 7 µM.

On to `CNCCCC1(c2ccc(F)cc2)OCc2cc(C#N)ccc21` (stereo not drawn) [Desmethylcitalopram], for which the Ki is 1.3 µM and 6 µM.

Still in this series, the particulars now being: read-out: observed K1 (apparent); training set of 14 amphetamine compounds, Wu et al., Biochem. Pharmacol. 53: 1605-1612 (1997); cited from earlier work.
As for `CNC(C)Cc1ccc2c(c1)OCO2` (stereo not drawn) [(d,l)-3,4-methylenedioxymethamphetamine], the Ki was 0.6 µM. As for (+)-methamphetamine, the Ki was 25 µM.

In the case of `COc1cccc(CC(C)N)c1` (stereo not drawn) [(d,l)-3-methoxyamphetamine], the Ki was 17.5 µM. In the case of `COc1ccccc1CC(C)N` (stereo not drawn) [(d,l)-2-methoxyamphetamine], the Ki is 11.5 µM. As to `C[C@H](N)C(=O)c1ccccc1` [(d,l)-cathinone], the Ki was 340 µM. With `CC(N)Cc1ccc(O)cc1` (single isomer, unassigned; (+)) [(+)-4-hydroxyamphetamine], the Ki was 195 µM.

Consider `CC(N)Cc1ccc2c(c1)OCO2` (stereo not drawn) [(d,l)-3,4-methylenedioxyamphetamine], for which the Ki is 1.8 µM. In the case of `COc1cc(OC)c(CC(C)N)c(OC)c1` (stereo not drawn) [(d,l)-2,4,6-trimethoxyamphetamine], the Ki is 33 µM. Turning to `COc1cc2c(cc1CC(C)N)OCO2` (stereo not drawn) [(d,l)-2-methoxy-4,5-methylenedioxyamphetamine], the Ki was 0.17 µM.

For the molecule `CNC(C)Cc1ccc(O)cc1` (stereo not drawn) [(d,l)-4-hydroxymethamphetamine], the Ki is 60 µM. With `COc1ccc(CC(C)N)cc1` (stereo not drawn) [(d,l)-4-methoxyamphetamine], the Ki is 24 µM.

Turning to `COc1cc(CC(C)N)cc2c1OCO2` (stereo not drawn) [(d,l)-3-methoxy-4,5-methylenedioxyamphetamine], the Ki is 2.2 µM. As for `CC(N)Cc1ccccc1` (single isomer, unassigned; (+)) [(+)-amphetamine], the Ki is 26.5 µM. For the molecule `COc1cc(CC(C)N)cc(OC)c1OC` (stereo not drawn) [(d,l)-3,4,5-trimethoxyamphetamine], the Ki is 128 µM.
